Tests used:
Format in all cases: functional
[1] = tested on: Spodoptera litura; assay: Larvicidal activity against third-instar larvae of Spodoptera litura infested in soybean seedling assessed as mortality at 2 ppm sprayed 6 days prior to infestation measured after 5 days
[2] = tested on: Spodoptera litura; assay: Larvicidal activity against third-instar larvae of Spodoptera litura infested in soybean seedling assessed as mortality at 2 ppm sprayed 1 day prior to infestation measured after 5 days
[3] = tested on: Adoxophyes orana; assay: Larvicidal activity against second-instar larvae of Adoxophyes orana infested soybean seedling assessed as mortality at 5 ppm measured after 7 days; settings: 168 h
[4] = tested on: Plutella xylostella; assay: Larvicidal activity against second-instar larvae of Plutella xylostella (diamondback moth) infested raddish seedling assessed as mortality at 3.3 ppm sprayed 2 hr prior to infestation measured after 4 days

SMILES	mortality at 2 ppm [1] [%]	mortality at 2 ppm [2] [%]	mortality at 5 ppm [3] [%]	mortality at 3.3 ppm [4] [%]
Cc1c(NC(=O)NC(=O)c2c(F)cccc2F)ccc(SC(F)(F)C(F)F)c1C	100	100	100	100
Cc1cc(S(=O)(=O)C(F)(F)C(F)F)c(C)cc1NC(=O)NC(=O)c1c(F)cccc1F	100	100	95	100
O=C(NC(=O)c1c(F)cccc1F)Nc1ccc(SC(F)(F)C(F)F)c(Cl)c1Cl	100	100	100	100
O=C(NC(=O)c1c(F)cccc1F)Nc1ccc([S+]([O-])C(F)(F)C(F)F)c(Cl)c1Cl (configuration not stated)	100	100	85	100
O=C(NC(=O)c1c(F)cccc1F)Nc1ccc(S(=O)(=O)C(F)(F)C(F)F)c(Cl)c1Cl	100	100	100	95
Cc1c(NC(=O)NC(=O)c2c(F)cccc2F)ccc([S+]([O-])C(F)(F)C(F)F)c1C (configuration not stated)	100	100	90	100
Cc1c(NC(=O)NC(=O)c2c(F)cccc2F)ccc(S(=O)(=O)C(F)(F)C(F)F)c1C	100	100	100	100
O=C(NC(=O)c1c(F)cccc1F)Nc1ccc(SC(F)(F)C(F)Cl)cc1 (configuration not stated)	45	65	40	100
O=C(NC(=O)c1c(F)cccc1F)Nc1ccc(S(=O)(=O)C(F)(F)C(F)Cl)cc1 (configuration not stated)	0	0	–	–
O=C(NC(=O)c1c(F)cccc1F)Nc1ccc(SC(F)(F)C(F)Cl)cc1F (configuration not stated)	100	100	100	100
O=C(NC(=O)c1c(F)cccc1F)Nc1ccc([S+]([O-])C(F)(F)C(F)Cl)cc1F (configuration not stated)	100	100	100	100
O=C(NC(=O)c1c(F)cccc1F)Nc1ccc(S(=O)(=O)C(F)(F)C(F)Cl)cc1F (configuration not stated)	100	100	100	100
O=C(NC(=O)c1c(F)cccc1F)Nc1ccc(SC(F)(F)C(F)Cl)cc1Cl (configuration not stated)	100	100	100	100
O=C(NC(=O)c1c(F)cccc1F)Nc1ccc([S+]([O-])C(F)(F)C(F)Cl)cc1Cl (configuration not stated)	90	100	95	95
O=C(NC(=O)c1c(F)cccc1F)Nc1ccc(S(=O)(=O)C(F)(F)C(F)Cl)cc1Cl (configuration not stated)	100	100	100	95
O=C(NC(=O)c1c(F)cccc1F)Nc1ccc(SC(F)(F)C(F)Cl)cc1Br (configuration not stated)	100	100	100	95
O=C(NC(=O)c1c(F)cccc1F)Nc1ccc(S(=O)(=O)C(F)(F)C(F)Br)cc1Br (configuration not stated)	95	100	85	20
Cc1cc(SC(F)(F)C(F)Cl)ccc1NC(=O)NC(=O)c1c(F)cccc1F (configuration not stated)	100	100	95	100
Cc1cc([S+]([O-])C(F)(F)C(F)Cl)ccc1NC(=O)NC(=O)c1c(F)cccc1F (configuration not stated)	100	100	100	100
Cc1cc(S(=O)(=O)C(F)(F)C(F)Cl)ccc1NC(=O)NC(=O)c1c(F)cccc1F (configuration not stated)	100	100	95	100

SMILES	mortality at 2 ppm [1] [%]	mortality at 2 ppm [2] [%]	mortality at 5 ppm [3] [%]	mortality at 3.3 ppm [4] [%]
O=C(NC(=O)c1c(F)cccc1F)Nc1cc(Cl)c(SC(F)(F)C(F)Cl)cc1Cl (configuration not stated)	100	100	100	100
O=C(NC(=O)c1c(F)cccc1F)Nc1cc(Cl)c([S+]([O-])C(F)(F)C(F)Cl)cc1Cl (configuration not stated)	100	100	100	100
O=C(NC(=O)c1c(F)cccc1F)Nc1cc(Cl)c(S(=O)(=O)C(F)(F)C(F)Cl)cc1Cl (configuration not stated)	95	100	100	100
Cc1cc(SC(F)(F)C(F)Cl)c(C)cc1NC(=O)NC(=O)c1c(F)cccc1F (configuration not stated)	100	100	95	100
Cc1cc([S+]([O-])C(F)(F)C(F)Cl)c(C)cc1NC(=O)NC(=O)c1c(F)cccc1F (configuration not stated)	100	100	100	100
Cc1cc(S(=O)(=O)C(F)(F)C(F)Cl)c(C)cc1NC(=O)NC(=O)c1c(F)cccc1F (configuration not stated)	100	100	100	100
O=C(NC(=O)c1c(F)cccc1F)Nc1ccc(SC(F)(F)C(F)Cl)c(Cl)c1Cl (configuration not stated)	100	100	100	95
O=C(NC(=O)c1c(F)cccc1F)Nc1ccc([S+]([O-])C(F)(F)C(F)Cl)c(Cl)c1Cl (configuration not stated)	100	100	100	100
O=C(NC(=O)c1c(F)cccc1F)Nc1ccc(S(=O)(=O)C(F)(F)C(F)Cl)c(Cl)c1Cl (configuration not stated)	100	100	100	100
Cc1c(NC(=O)NC(=O)c2c(F)cccc2F)ccc(SC(F)(F)C(F)Cl)c1C (configuration not stated)	100	100	100	100
Cc1c(NC(=O)NC(=O)c2c(F)cccc2F)ccc([S+]([O-])C(F)(F)C(F)Cl)c1C (configuration not stated)	100	100	100	100
Cc1c(NC(=O)NC(=O)c2c(F)cccc2F)ccc(S(=O)(=O)C(F)(F)C(F)Cl)c1C (configuration not stated)	100	100	100	100
O=C(NC(=O)c1c(F)cccc1F)Nc1ccc([S+]([O-])C(F)(F)C(F)F)cc1 (configuration not stated)	15	5	–	100
O=C(NC(=O)c1c(F)cccc1F)Nc1ccc(S(=O)(=O)C(F)(F)C(F)F)cc1	0	0	–	90
O=C(NC(=O)c1c(F)cccc1F)Nc1cc(Cl)c(SC(F)(F)C(F)F)cc1Cl	85	100	100	100
O=C(NC(=O)c1c(F)cccc1F)Nc1cc(Cl)c([S+]([O-])C(F)(F)C(F)F)cc1Cl (configuration not stated)	100	100	75	100
O=C(NC(=O)c1c(F)cccc1F)Nc1cc(Cl)c(S(=O)(=O)C(F)(F)C(F)F)cc1Cl	95	100	90	95
Cc1cc(SC(F)(F)C(F)F)c(C)cc1NC(=O)NC(=O)c1c(F)cccc1F	100	100	90	85
Cc1cc([S+]([O-])C(F)(F)C(F)F)c(C)cc1NC(=O)NC(=O)c1c(F)cccc1F (configuration not stated)	100	100	100	100

Reference: ChEMBL document CHEMBL3045262, “Synthesis and Insecticidal Activity of Novel 1-Benzoyl-3-phenylurea Derivatives with Polyfluoroethylsulfenyl, -sulfonyl, and-sulfinyl Substituents” (1992)
